In PMC11638965, “Leveraging Dual-Ligase Recruitment to Enhance Protein Degradation via a Heterotrivalent Proteolysis Targeting Chimera” (Journal of the American Chemical Society, 2024):
Where “and” joins values, the source holds several entries; their conditions need not be identical. Equal entries are not always repeated.

Tests used:
[1] = target: CRBN (Homo sapiens, UniProt Q96SW2); assay: Western blot dose-response degradation in HEK293 cells; assay type: cell-based; set-up: Western blot data for BET, CRBN and VHL protein levels; endogenous in cells; host or cells: HEK293 (ATCC); settings: for DC50: HEK293 cells, 6 h, Western blot, mean ± S.E.M. of three experiments, values marked b mean ± S.D. of two
Protocol: (§1) HEK293 cells were obtained from ATCC. HEK293 was cultured in DMEM supplemented with 10% (v/v) fetal bovine serum (FBS), 1% […] and 1% (v/v) penicillin/streptomycin (pen/strep) at 37 °C, 5% CO2, and 95% humidity.
(§2) HEK293 cells were plated at a density of 5 × 10^5 cells per well of a six well plate a day prior to initiation of the experiment. Compounds were dissolved to a 10 mM concentrated stock solution in DMSO from which the compounds were further diluted to a working concentration range of 1 μM to 100 pM in DMEM and was subsequently added to cells at the initiation of the experiment. An additional vehicle control was added to cells alongside compound treatments. Cells were left to incubate with compound for 6 h at 37 °C, 5% CO2, and 95% humidity. Cells were then subsequently washed twice with PBS before being harvested in RIPA buffer supplemented with protease inhibitor cocktail and Benzonase Nuclease before being store at −20 °C.
(§3) Protein concentration was determined using the BCA assay. Samples were then prepared in LDS buffer containing 5% 1 M DTT and subsequently loaded onto NuPAGE 4–12% Bis-Tris Midi gels, followed by the transfer of the proteins onto nitrocellulose membranes. The membranes were blocked for 1 h prior to incubation with the primary antibodies using 5% Milk TBST. Membranes were incubated at 4 °C in either BRD4(Ab128874), BRD3(Ab50818), BRD2(Ab139690), VHL(CST#68547) and CRBN(CST#71810) primary antibody overnight. Following overnight incubation, the membranes were incubated with complementary IRDye 800CW secondary antibody and a hFAB Rhodamine Anti-Tubulin Primary Antibody (loading control) for 1 h and then imaged with a Bio-Rad imager. All Western blots were analyzed for band intensities using Image Lab (Bio-Rad). The data extracted from these blots were then plotted and analyzed using Prism (v. 10.2.2, GraphPad). Linear regression curve fitting was used to calculate pDC50 values. The standard deviation of the pDC50 was calculated for all compounds that had two independent repeats and the standard error of the mean calculated for all compounds that had three independent repeats. All Western blotting figures were developed in Adobe illustrator.

[2] = target: T1, BRD4^Short (Homo sapiens, UniProt O60885); assay: as above; assay type: cell-based; settings: 6 h, mean ± S.E.M. of three experiments, values marked b mean ± S.D. of two
T1 construct: Western blot data for BET, CRBN and VHL protein levels; endogenous in cells; host or cells: HEK293 (ATCC)
Protocol: as §1, §2, §3

[3] = target: T2, BRD2 (Homo sapiens, UniProt P25440); assay: as above; assay type: cell-based; settings: 6 h; for DC50: mean ± S.E.M. of three experiments, values marked b mean ± S.D. of two
T2 construct: HiBiT, is appended to the N-terminus of endogenous BRD2, BRD3, and BRD4; endogenous in cells
Protocol: as §1, §2, §3

[4] = target: T3, BRD4^Long (Homo sapiens, UniProt O60885); assay: as above; assay type: cell-based; settings: for DC50: HEK293 cells, 6 h, Western blot, mean ± S.E.M. of three experiments, values marked b mean ± S.D. of two
T3 construct: Western blot data for BET, CRBN and VHL protein levels; endogenous in cells; host or cells: HEK293 (ATCC)
Protocol: as §1, §2, §3

[5] = target: T4, BRD3 (Homo sapiens, UniProt Q15059); assay: as above; assay type: cell-based; settings: 6 h, mean ± S.E.M. of three experiments, values marked b mean ± S.D. of two
T4 construct: HiBiT, is appended to the N-terminus of endogenous BRD2, BRD3, and BRD4; endogenous in cells
Protocol: as §1, §2, §3

[6] = target: T4, BRD3; assay: Live cell kinetic HiBiT degradation assay, HiBiT-BRD3 HEK293 cells; assay type: cell-based; settings: for DC50: HiBiT-BRD3 CRISPR knock-in HEK293 cells, live cell kinetic degradation, 24 h, read-out: Dmax 50 BRD3; for λmax BRD3 (degradation rate): HiBiT-BRD3 knock-in HEK293 cells
Protocol: (§4) HEK293 HiBiT-BRD2 (LgBiT stable), HEK293 HiBiT-BRD3 (LgBiT stable), and HEK293 HiBiT-BRD4 (LgBiT stable) were created using CRISPR/Cas9 to insert at HiBiT tag at the N-terminal genomic loci of BRD2, BRD3, or BRD4 in a cell line stably expressing LgBiT protein as described previously.[23]
(§5) For kinetic degradation experiments, HEK293 HiBiT-BRD2, 3, or 4 (LgBiT stable) cells and HEK293 HiBiT-BRD4 (LgBiT) CRBN KO and VHL KO cells were plated at 20,000 cells/well in DMEM +10% FBS in white 96-well tissue culture plates and allowed to adhere overnight. The next day, media was removed and 90 μL of prewarmed CO2-independent medium (Gibco) containing Endurazine (Promega) at a 1:100 dilution from stock was added. Plates were incubated at 37 °C for 3 h to allow luminescence to equilibrate. A threefold dilution series of each PROTAC at 10x the desired final concentration was prepared (with the amount of DMSO in each treatment condition kept constant). After luminescence equilibration, a preread luminescence measurement was taken (prior to compound addition) to allow for baseline normalization to account for possible plating differences. Cells were then treated with 10 μL of the prepared PROTAC dilution series (in triplicate or quadruplicate). Treated plates were placed in a GloMax Discover luminometer (Promega) prewarmed to 37 °C and luminescence measurements were obtained every 7 min for 24 h. Kinetic degradation plots were obtained by first normalizing time course luminescence readings in each well to the preread measurement, then to the average value of the DMSO only control at each time point. Data was analyzed using GraphPad Prism (version 8) and excel. Dmax values were identified as the lowest luminescence reading in each well. Rate constant values were calculated using a one phase exponential decay Y = (Y0-Plateau) e(K*^X) + Plateau using Prism (Y0 constrained to 1). Dmax 50 values were calculated by plotting Dmax as a function of concentration, then fitting plots using the following equation: [drawing 1] to determine IC50.

[7] = test system: K562 cells; assay: Cell viability assay (CellTiter-Glo); assay type: cell-based, human; settings: Homo sapiens; WT K562, 5.12 pM to 10 uM, n = 3 (Table S4)
Protocol: (§6) Cells were seeded in 96-well plates at a cell density of […], and each treatment was performed in biological triplicates. Cell viability was assessed using the CellTiter-Glo assay (CellTiter-Glo Luminescent Cell Viability Assay, Promega G7573) according to manufacturer instructions. Luminescence signal was measured on a Multilabel Plate Reader Platform Victor X3 model 2030 (PerkinElmer). Survival curves and EC50 values were determined using GraphPad Prism v.10.0.3 by fitting a nonlinear regression to the log10-transformed drug concentration and the relative viability after normalization of each data point to the mean luminescence of the lowest drug concentration.

[8] = test system: KBM7 cells; assay: Cell viability assay (CellTiter-Glo); assay type: cell-based, human; settings: Homo sapiens, KBM-7; WT KBM7, 5.12 pM to 10 uM, n = 3 (Table S4)
Protocol: as §6

[9] = target: T2, BRD2; assay: Live cell kinetic HiBiT degradation assay, HiBiT-BRD2 HEK293 cells; assay type: cell-based; settings: for λmax BRD2 (degradation rate): HiBiT-BRD2 knock-in HEK293 cells; for DC50: HiBiT-BRD2 CRISPR knock-in HEK293 cells, live cell kinetic degradation, 24 h, read-out: Dmax 50 BRD2
Protocol: as §4, §5

T2 sequence (P25440 whole entry): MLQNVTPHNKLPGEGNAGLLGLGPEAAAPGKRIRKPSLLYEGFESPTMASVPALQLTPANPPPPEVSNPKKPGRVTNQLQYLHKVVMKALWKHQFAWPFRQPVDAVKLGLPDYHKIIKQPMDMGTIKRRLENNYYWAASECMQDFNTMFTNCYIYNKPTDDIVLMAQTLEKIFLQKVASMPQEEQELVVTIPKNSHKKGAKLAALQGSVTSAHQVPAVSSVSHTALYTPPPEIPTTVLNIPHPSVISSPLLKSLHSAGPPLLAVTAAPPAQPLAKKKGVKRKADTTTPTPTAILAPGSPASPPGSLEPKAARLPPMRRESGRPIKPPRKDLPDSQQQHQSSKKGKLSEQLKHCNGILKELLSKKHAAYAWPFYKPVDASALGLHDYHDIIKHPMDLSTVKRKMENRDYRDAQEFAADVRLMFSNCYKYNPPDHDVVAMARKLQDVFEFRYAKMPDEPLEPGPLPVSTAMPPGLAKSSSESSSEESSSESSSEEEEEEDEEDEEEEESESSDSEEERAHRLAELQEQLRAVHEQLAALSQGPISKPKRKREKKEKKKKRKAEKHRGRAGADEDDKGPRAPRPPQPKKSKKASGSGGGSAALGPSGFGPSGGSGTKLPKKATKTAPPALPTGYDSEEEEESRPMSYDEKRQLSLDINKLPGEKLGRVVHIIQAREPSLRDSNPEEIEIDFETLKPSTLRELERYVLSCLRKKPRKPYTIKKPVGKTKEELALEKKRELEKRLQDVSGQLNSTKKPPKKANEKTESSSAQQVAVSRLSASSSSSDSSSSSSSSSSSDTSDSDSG
CRBN, sequence (Q96SW2 whole entry): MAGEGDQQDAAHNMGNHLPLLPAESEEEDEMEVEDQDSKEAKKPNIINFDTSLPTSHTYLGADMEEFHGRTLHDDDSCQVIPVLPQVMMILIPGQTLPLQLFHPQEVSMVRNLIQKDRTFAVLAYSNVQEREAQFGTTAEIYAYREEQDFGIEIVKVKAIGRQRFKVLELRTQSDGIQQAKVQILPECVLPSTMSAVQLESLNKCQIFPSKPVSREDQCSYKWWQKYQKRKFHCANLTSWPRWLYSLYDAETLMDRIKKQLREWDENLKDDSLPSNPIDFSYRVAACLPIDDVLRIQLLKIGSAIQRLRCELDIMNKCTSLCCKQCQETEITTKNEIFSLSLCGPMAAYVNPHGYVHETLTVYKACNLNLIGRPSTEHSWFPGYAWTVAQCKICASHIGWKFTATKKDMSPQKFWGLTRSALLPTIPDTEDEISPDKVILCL
T4 sequence (Q15059 whole entry): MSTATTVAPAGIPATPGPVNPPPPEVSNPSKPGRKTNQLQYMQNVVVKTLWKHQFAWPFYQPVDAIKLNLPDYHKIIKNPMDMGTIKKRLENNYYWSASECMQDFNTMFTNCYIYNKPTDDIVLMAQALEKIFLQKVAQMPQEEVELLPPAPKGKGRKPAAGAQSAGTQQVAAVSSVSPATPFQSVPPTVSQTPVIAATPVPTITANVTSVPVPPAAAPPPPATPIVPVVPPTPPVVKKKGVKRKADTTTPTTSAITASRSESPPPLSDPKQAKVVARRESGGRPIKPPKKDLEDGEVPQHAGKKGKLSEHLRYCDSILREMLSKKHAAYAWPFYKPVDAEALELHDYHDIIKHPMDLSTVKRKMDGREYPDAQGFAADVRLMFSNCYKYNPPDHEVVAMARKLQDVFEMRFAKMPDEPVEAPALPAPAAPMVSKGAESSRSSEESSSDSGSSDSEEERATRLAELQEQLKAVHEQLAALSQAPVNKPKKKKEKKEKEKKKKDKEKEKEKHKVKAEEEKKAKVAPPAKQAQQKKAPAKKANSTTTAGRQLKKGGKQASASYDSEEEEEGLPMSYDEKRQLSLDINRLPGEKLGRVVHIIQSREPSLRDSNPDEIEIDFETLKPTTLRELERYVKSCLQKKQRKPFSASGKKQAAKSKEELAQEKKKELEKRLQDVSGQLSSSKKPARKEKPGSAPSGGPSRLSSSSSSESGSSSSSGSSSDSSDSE

Compound	fold weaker degradation of CRBN compared with aniline tethered matched pair ([1]; 31 and 32 compared with 23 and 27, respectively, DC50, HEK293 Western blot) [fold]	DC50 [1] [µM]	DC50 [2] [µM]	DC50 [3] [µM]	DC50 [4] [µM]	DC50 [5] [µM]	DC50 [6] [µM]	λmax BRD3 (degradation rate) [6]	EC50 [7] [µM]	EC50 [8] [µM]	λmax BRD2 (degradation rate) [9]	Dmax [3] [%]	onset of the hook effect, BRD2 [3] [µM]	fold decrease in CRBN degradation vs 26 ([1]; DC50, HEK293 Western blot) [fold]	fold decrease in BRD4^Long degradation vs 26 ([4]; DC50, HEK293 Western blot) [fold]	DC50 [9] [µM]
Cc1ncsc1-c1ccc(CNC(=O)[C@@H]2C[C@@H](O)CN2C(=O)[C@@H](NC(=O)COCC(C)(COCCOCCOCCOC(=O)C[C@@H]2N=C(c3ccc(Cl)cc3)c3c(sc(C)c3C)-n3c(C)nnc32)COCCOCCOCCN2CCN(c3cccc4c3C(=O)N(C3CCC(=O)NC3=O)C4=O)CC2)C(C)(C)C)cc1 (mixture of isomers) [AB3029 (31), (17S)-11-((2-(2-(2-(4-(2-(2,6-dioxopiperidin-3-yl)-1,3-dioxoisoindolin-4-yl)piperazin-1-yl)ethoxy)ethoxy)ethoxy)methyl)-17-((2S,4R)-4-hydroxy-2-((4-(4-methylthiazol-5-yl)benzyl)carbamoyl)pyrrolidine-1-carbonyl)-11,18,18-trimethyl-15-oxo-3,6,9,13-tetraoxa-16-azanonadecyl 2-((S)-4-(4-chlorophenyl)-2,3,9-trimethyl-6H-thieno[3,2-f][1,2,4]triazolo[4,3-a][1,4]diazepin-6-yl)acetate]	2.9	0.58 ± 0.24	0.015 ± 0.0024	0.052 ± 0.0094	0.014 ± 0.0039	0.014 ± 0.0029	0.0062	2.36 h⁻¹	0.494	0.294	1.90 h⁻¹ and 1.9 h⁻¹					
Cc1ncsc1-c1ccc(CNC(=O)[C@@H]2C[C@@H](O)CN2C(=O)[C@@H](NC(=O)COCC(COCCOCCOCCNc2cc3c(cc2F)C(=O)N(C2CCC(=O)NC2=O)C3=O)(COCCOCCOCCOC(=O)C[C@@H]2N=C(c3ccc(Cl)cc3)c3c(sc(C)c3C)-n3c(C)nnc32)COCCOCCOCCOC(=O)C[C@@H]2N=C(c3ccc(Cl)cc3)c3c(sc(C)c3C)-n3c(C)nnc32)C(C)(C)C)cc1 (mixture of isomers) [AB3124 (86)]		0.113 ± 0.0032	0.0029 ± 0.0003	0.001 ± 0.0002	0.0022 ± 0.0001	0.0035 ± 0.0003						~80	1			
Cc1ncsc1-c1ccc(CNC(=O)[C@@H]2C[C@@H](O)CN2C(=O)[C@@H](NC(=O)COCC(C)(COCCOCCNc2cc3c(cc2F)C(=O)N(C2CCC(=O)NC2=O)C3=O)COCCOCCOC(=O)C[C@@H]2N=C(c3ccc(Cl)cc3)c3c(sc(C)c3C)-n3c(C)nnc32)C(C)(C)C)cc1 (mixture of isomers) [AB3125 (30), (14S)-8-((2-(2-((2-(2,6-dioxopiperidin-3-yl)-6-fluoro-1,3-dioxoisoindolin-5-yl)amino)ethoxy)ethoxy)methyl)-14-((2S,4R)-4-hydroxy-2-((4-(4-methylthiazol-5-yl)benzyl)carbamoyl)pyrrolidine-1-carbonyl)-8,15,15-trimethyl-12-oxo-3,6,10-trioxa-13-azahexadecyl 2-((S)-4-(4-chlorophenyl)-2,3,9-trimethyl-6H-thieno[3,2-f][1,2,4]triazolo[4,3-a][1,4]diazepin-6-yl)acetate]		0.9 ± 0.72	0.0044 ± 0.0024	0.019 ± 0.0072	0.004 ± 0.0021	0.0064 ± 0.0008	0.003	2.60 h⁻¹ and 2.6 h⁻¹	0.242	0.0341	2.63 h⁻¹			4.5	5.3	0.031
Cc1ncsc1-c1ccc(CNC(=O)[C@@H]2C[C@@H](O)CN2C(=O)[C@@H](NC(=O)COCC(C)(COCCOCCNc2cc3c(cc2F)C(=O)N(C2CCC(=O)NC2=O)C3=O)COCCOCCOCCOC(=O)C[C@@H]2N=C(c3ccc(Cl)cc3)c3c(sc(C)c3C)-n3c(C)nnc32)C(C)(C)C)cc1 (mixture of isomers) [AB3126 (29), (17S)-11-((2-(2-((2-(2,6-dioxopiperidin-3-yl)-6-fluoro-1,3-dioxoisoindolin-5-yl)amino)ethoxy)ethoxy)methyl)-17-((2S,4R)-4-hydroxy-2-((4-(4-methylthiazol-5-yl)benzyl)carbamoyl)pyrrolidine-1-carbonyl)-11,18,18-trimethyl-15-oxo-3,6,9,13-tetraoxa-16-azanonadecyl 2-((S)-4-(4-chlorophenyl)-2,3,9-trimethyl-6H-thieno[3,2-f][1,2,4]triazolo[4,3-a][1,4]diazepin-6-yl)acetate]		0.15 ± 0.19	0.0053 ± 0.0055	0.033 ± 0.034	0.005 ± 0.0053	0.0066 ± 0.0003	0.0019	2.62 h⁻¹	0.0805	0.0073	2.35 h⁻¹					0.018
